Assay results reported in patent US20110301078A1, “PREVENTION OF BACTERIAL GROWTH AND BIOFILM FORMATION BY LIGANDS THAT ACT ON CANNABINOIDERGIC SYSTEMS” (priority 2008, published 2011).

What was measured:
[1] = target: mammalian CB1 receptors (Homo sapiens, UniProt P21554); settings: cited from earlier work
[2] = target: mammalian CB2 receptors (Homo sapiens, UniProt P34972); settings: cited from earlier work
[3] = tested on: gram-positive bacteria, including Streptococcus agalactiae, Enterococcus faecalis, Staphylococcus epidermidis, and prominent MRSA strains; assay: Growth and biofilm formation of gram-positive strains, crystal violet stain quantified at 600 nm (Example 2, FIG. 3); assay type: cell-based; settings: 30 μM, overnight, 35±2° C.; for growth of gram-positive bacteria, including MRSA: 2 mL broth; for biofilm formation of gram-positive bacteria, including MRSA: crystal violet stain solubilized, 600 nm
Protocol: (§1) The efficacy of the compounds were again tested against different strains of gram-positive bacteria, including Streptococcus agalactiae, Enterococcus faecalis, Staphylococcus epidermidis, and prominent MRSA (hospital-acquired and community-acquired) strains. Broth inoculum was prepared from 18-24 hours old colonies grown on standard agar plates. Approximately four of the fresh colonies were swiped with a sterile cotton Q-tip and then suspended in saline by immersion and light swirling. The turbidity was adjusted to equal that of a 0.5 McFarland turbidity standard using a spectrophotometer (600 nm). The amount corresponded to about 1.5×10^8 CFU/mL, where CFU stands for colony-forming units, and is equivalent to an absorbance at 600 nm equal to 0.132 or a percentage transmission equal to 74.3. […] Sterile 4 mL polystyrene tubes (12×75 mm) with caps were used for this purpose.
The bacteria were allowed to incubate overnight in 2 mL broth at 35±2° C. in the presence or absence of various experimental compounds or antibiotics. The amount of biofilm was visualized qualitatively, then stained with crystal violet. Biofilm attached to the side of the tube was stained purple. After staining, the tubes were decanted and rinsed, leaving stained biofilm adhering to the tubes. Next, the stain was solubilized and mixed with ethanol (EtOH) or dimethylsulfoxide (DMSO). The turbidity of the so lubilized stain, or lack thereof, was then quantified in a spectrophotometer (600 nm). In the broth only sample, no bacteria were added. In the negative controls, no compounds were added. The vehicle controls were made up of the appropriate dilution of the different solvent used to dissolve the experimental compounds, including ethanol (EtOH) or dimethylsulfoxide (DMSO). The experimental compounds tested included 30 μM of CP55,940, 30 μM of O-2050, 30 μM of linoleyl ethanolamide, 30 μM of no ladin ether, and 30 μM of anandamide (natural product 2). High concentrations of silver nitrate (1000 μM) and vancomycin (50 μg/mL) served as positive antimicrobial controls.

[4] = tested on: MRSA bacteria; assay: MRSA bacterial growth and biofilm formation in broth tubes, crystal violet stain (Example 1, FIG. 2); assay type: cell-based, Methicillin-resistant Staphylococcus aureus; settings: about 5000 CFU/mL, 16-20 hours, 2 mL broth, 35±2° C., CP55,940 and LEA at 30 μm; for MRSA biofilm formation: crystal violet, qualitative
Protocol: as §1, with “broth” for “efficacy of the compounds were again tested against different strains of gram-positive bacteria, including Streptococcus agalactiae, Enterococcus faecalis, Staphylococcus epidermidis, and prominent MRSA (hospital-acquired and community-acquired) strains. Broth”
MRSA bacteria (about 5000 CFU/mL) were allowed to grow for 16-20 hours in 2 mL broth at 35±2° C. in the presence or absence of various experimental compounds or antibiotics. The amount of biofilm was visualized qualitatively after being stained with crystal violet. Biofilm attached to the side of the tube was stained purple. The compounds CP55,940, LEA, and capsaicin were all tested at 30 μm. In the negative control, no compounds were added. The vehicle controls were made up of the appropriate dilution of the different solvent used to dissolve the experimental compounds, including methanol (MeOH), ethanol (EtOH) or dimethylsulfoxide (DMSO). The experimental compounds tested included CP55,940, noladin ether, O-2050, and linoleyl ethanolamide. High concentrations of the antibiotics zeocin and ampicillin served as positive antimicrobial controls. […] The no bacteria group contained only media and no bacteria, and served as another control.

Chain of mammalian CB2 receptors (P34972 whole entry): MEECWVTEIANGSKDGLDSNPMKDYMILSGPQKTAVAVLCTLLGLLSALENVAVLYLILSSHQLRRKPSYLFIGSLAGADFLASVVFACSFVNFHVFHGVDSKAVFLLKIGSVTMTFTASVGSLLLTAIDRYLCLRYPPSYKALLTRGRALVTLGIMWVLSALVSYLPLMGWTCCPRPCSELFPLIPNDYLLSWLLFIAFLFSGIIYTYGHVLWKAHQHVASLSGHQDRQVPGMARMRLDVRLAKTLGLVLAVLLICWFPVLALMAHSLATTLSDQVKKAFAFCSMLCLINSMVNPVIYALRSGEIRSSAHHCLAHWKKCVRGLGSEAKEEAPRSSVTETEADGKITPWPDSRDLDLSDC
Chain of mammalian CB1 receptors (P21554 whole entry): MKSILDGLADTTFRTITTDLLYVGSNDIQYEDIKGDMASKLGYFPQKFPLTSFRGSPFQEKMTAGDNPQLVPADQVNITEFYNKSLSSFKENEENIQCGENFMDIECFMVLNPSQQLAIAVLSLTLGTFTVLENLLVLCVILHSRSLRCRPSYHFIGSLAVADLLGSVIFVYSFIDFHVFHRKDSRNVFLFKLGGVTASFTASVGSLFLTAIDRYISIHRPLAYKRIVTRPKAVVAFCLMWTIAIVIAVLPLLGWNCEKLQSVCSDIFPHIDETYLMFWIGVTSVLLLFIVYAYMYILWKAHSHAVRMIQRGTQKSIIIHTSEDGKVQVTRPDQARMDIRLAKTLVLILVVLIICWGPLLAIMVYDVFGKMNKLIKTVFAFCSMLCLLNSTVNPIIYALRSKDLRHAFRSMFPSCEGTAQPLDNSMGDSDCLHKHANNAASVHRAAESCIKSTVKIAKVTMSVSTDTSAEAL

SMILES | affinity for CB1 receptor [1] | affinity for CB2 receptor [2] | growth of gram-positive bacteria, including MRSA [3] | biofilm formation of gram-positive bacteria, including MRSA [3] | MRSA growth [4] | MRSA biofilm formation [4]
CCCCCCC(C)(C)c1ccc([C@@H]2C[C@H](O)CC[C@H]2CCCO)c(O)c1 [CP55,940, (−)-cis-3-[2-Hydroxy-4-(1,1-dimethylheptyl)phenyl]-tran s-4-(3-hydroxypropyl)cyclohexanol] | high affinity | high affinity | prevent | prevent | prevent | prevent
CC1=CC[C@@H]2[C@@H](C1)c1c(O)cc(CC#CCCCNS(C)(=O)=O)cc1OC2(C)C [Compound O-2050] |  |  | prevent | prevent | prevent | prevent
CN[C@H]1C[C@@H](N)[C@H](O)[C@@H](O[C@@H]2O[C@H](CO)[C@H](O)[C@@H]3OC4(O[C@H]23)O[C@H]([C@@H](N)CO)[C@H](O)[C@H](O)[C@H]4O)[C@@H]1O (stereo partly shown) [Hydromycin B, reference compound] |  |  |  |  | Relatively ineffective | 
CCCCC/C=C\C/C=C\CCCCCCCC(=O)NCCO [LEA, N-(2-hydroxyethyl)-9Z,12Z-octadecadienamide] | poor affinity | poor affinity | prevent | prevent | prevent | prevent
CCCCC/C=C\C/C=C\C/C=C\C/C=C\CCCCOC(CO)CO [noladin ether, 2-[(5Z,8Z,11Z,14Z)-eicosatetraenyloxy]-1,3-propanediol] |  |  |  |  | prevent | prevent
